Test results: publication doi:10.1101/2020.12.20.110478v1 (biorxiv, 2020)

Key:
human GlyT1 (hGlyT1) [1] = molecular target: T1, human GlyT1 (hGlyT1) (Homo sapiens, UniProt P48067); assay: [3H]Org24598 membrane competition, filtration; assay type: binding
T1 sequence (P48067 1-706): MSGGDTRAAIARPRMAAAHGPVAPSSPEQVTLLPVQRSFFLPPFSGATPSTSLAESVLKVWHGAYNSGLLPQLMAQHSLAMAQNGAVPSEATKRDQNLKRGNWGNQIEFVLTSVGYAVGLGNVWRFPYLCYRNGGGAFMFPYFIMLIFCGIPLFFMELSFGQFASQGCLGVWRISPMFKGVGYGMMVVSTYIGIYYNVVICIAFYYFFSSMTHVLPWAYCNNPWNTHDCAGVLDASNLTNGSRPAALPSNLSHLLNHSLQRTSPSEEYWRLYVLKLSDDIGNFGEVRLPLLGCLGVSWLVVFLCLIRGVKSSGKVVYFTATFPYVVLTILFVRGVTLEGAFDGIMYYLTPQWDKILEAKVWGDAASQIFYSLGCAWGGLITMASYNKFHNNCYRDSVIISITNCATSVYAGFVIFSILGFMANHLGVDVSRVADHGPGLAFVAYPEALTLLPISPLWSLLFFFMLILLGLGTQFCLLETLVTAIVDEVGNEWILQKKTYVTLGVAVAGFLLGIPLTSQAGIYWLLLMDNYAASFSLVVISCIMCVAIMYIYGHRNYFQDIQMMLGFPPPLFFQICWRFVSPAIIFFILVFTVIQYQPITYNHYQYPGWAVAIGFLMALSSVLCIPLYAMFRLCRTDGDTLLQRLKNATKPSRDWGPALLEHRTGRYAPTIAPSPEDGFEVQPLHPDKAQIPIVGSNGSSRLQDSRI

human GlyT1 (hGlyT1) [2] = molecular target: T1, human GlyT1 (hGlyT1); assay: [3H]glycine uptake inhibition in Flp-in-CHO cells; assay type: cell-based
GlyT1^minimal = molecular target: T2, GlyT1^minimal (Homo sapiens, UniProt P48067); assay: CPM thermofluor; assay type: binding; conditions: 10 uM Cmpd1; 0.73 uM protein; pH 7.5; LMNG
T2 sequence (P48067 91-684): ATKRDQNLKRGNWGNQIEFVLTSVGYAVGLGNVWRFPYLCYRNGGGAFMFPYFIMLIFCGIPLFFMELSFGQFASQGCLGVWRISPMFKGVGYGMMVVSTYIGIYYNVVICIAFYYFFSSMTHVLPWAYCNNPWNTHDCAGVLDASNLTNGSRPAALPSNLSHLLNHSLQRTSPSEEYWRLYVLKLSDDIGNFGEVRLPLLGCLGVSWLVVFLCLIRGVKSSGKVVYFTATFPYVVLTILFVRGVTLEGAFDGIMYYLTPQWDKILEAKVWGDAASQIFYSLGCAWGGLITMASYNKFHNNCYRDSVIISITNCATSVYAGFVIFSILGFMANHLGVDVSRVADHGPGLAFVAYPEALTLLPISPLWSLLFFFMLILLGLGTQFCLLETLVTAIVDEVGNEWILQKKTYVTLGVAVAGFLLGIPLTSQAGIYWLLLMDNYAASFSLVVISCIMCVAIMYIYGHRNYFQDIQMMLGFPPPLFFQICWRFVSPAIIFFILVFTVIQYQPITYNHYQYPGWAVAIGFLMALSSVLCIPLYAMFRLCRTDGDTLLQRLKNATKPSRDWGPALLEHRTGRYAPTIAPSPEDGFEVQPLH

IC50 (human GlyT1 (hGlyT1) [1]): 12.5 nM | IC50 (human GlyT1 (hGlyT1) [2]): 26.4 nM | increase in melting point (GlyT1^minimal): 30.5 °C
SMILES: CS(=O)(=O)c1ccc(OCC(F)(F)C(F)(F)F)c(C(=O)N2Cc3ccc(OC4CCOCC4)cc3C2)c1 [Cmpd1]
